The text below walks through data of US20220401617A1, “ADHESIVE COMPOSITIONS COMPRISING THERAPEUTICS” (RevBio, Inc., priority 2019, published 2022).

Structures can show the parent of a compound that is named as a salt.

A short description of series [1]: Properties of exemplary adhesive compositions (compound + tetra-calcium phosphate + water). Format: physicochemical. The following applies: mixed with tetra-calcium phosphate and water. Here is the method: Exemplary adhesive compositions were prepared by providing the compounds listed in Table 1 and tetra-calcium phosphate in a suitable receptacle and mixing with water to achieve the desired consistency. While water was used as the aqueous medium in the present compositions, the aqueous medium may instead be blood, saliva, serum, or a blood-based solution or suspension. In the present compositions, the solid components (compounds, tetra-calcium phosphate) were provided as particles. However, the solid components listed in the table may be provided in particle, granule, or fiber form, and the size of each of the components may vary as described in the Detailed Description. In some embodiments, the resulting properties, such as working and setting time, may be affected by these changes. The specific mean particle, granule, or fiber size for each solid component was selected to satisfy the use requirements as described in each of the embodiments.
The compounds comprising glyphosine, O-Phospho-L-serine (OPLS), […] […] After mixing, the compositions described were applied to the desired site and the adhesive properties examined, e.g., for tensile strength and durability.

The format of series [2] is physicochemical. Here is the method:
Several formulations of compositions comprising pain relievers (e.g., locally acting analgesics (e.g., naproxen and diclofenac) or local anesthetics (e.g. bupivacaine and articaine) were investigated for their affinity to the adhesive composition. The affinity of the therapeutic depends on the nature of the therapeutic and its interaction with the composition. This is measured as the partition coefficient which is the ratio of the amount of drug released from the composition to the ratio of the amount of drug retained in the composition under specific conditions.
The specific composition (e.g., adhesive composition) comprised 400 mg tetracalcium phosphate, 250 mg phosphoserine (a compound in FIG. 1V-a), and 135 μl of water that was prepared by mixing for 30 seconds, after which the mixture was formed into standard spherical substrates and allowed to cure. The substrate was then crushed using a mortar and pestle and used as a control. For the composition comprising a therapeutic, 1% w/w of the therapeutic was added to the tetracalcium phosphate and phosphoserine powder blend. The therapeutic was thoroughly mixed with tetracalcium phosphate and phosphoserine, after which deionized water was added and mixed for 30 seconds. Standard spherical substrates approximately 8 mm in diameter of adhesive composition were prepared. After curing, the substrate was crushed using mortar and pestle and the samples were incubated in 50 mL 1× PBS solution for 18 hours at 37° C. The partition coefficient of the therapeutic was evaluated using high-pressure liquid chromatography (HPLC) as shown in Table 3 below.

For series [3] the following is noted: 8% w/w naproxen, ssNMR.
The nature of series [4]: Retention/elution of gentamicin from adhesive composition matrix (HPLC). Format: physicochemical. The following applies: 2.5% w/w or 5% w/w gentamicin, PBS, 37° C., 10 days incubation. As for the experimental part:
Several formulations of compositions comprising antibiotics (AB) were investigated. The retention of the AB within the compositions may avoid or prevent bacterial colonization on or within the cured adhesive composition or any post-operative infection that could develop. The retention study was analyzed using elution studies, wherein high-pressure liquid chromatography (HPLC) was used to analyze the amount of AB released over time. Particularly, the elution profile of gentamicin from adhesive composition matrix was analyzed at days 1, 3, 5 and 10.
Several compositions were tested by adding either 2.5% w/w or 5% w/w of gentamicin to the tetracalcium phosphate and phosphoserine powder blend. Each cylinder was immersed in a polypropylene tube with 5 ml phosphate buffered saline (PBS) and shaken in a rotator at 37° C. Over the study period of 10 days, daily transfer of the cement cylinder into a test tube with PBS was conducted after saline washings. Elution samples of PBS was collected at various time points over a period of 10 days. The control was adhesive composition with no gentamicin, and the standard was different concentration of gentamicin alone.

Series [5] in a line: Release of bupivacaine from porous adhesive composition formulation (HPLC elution). Format: physicochemical. As to conditions: 10% w/w drug, 50 mL 1x PBS, 7-day period, 37° C. As for the experimental part:
Several formulations of compositions comprising pain relievers (e.g., local anesthetics (e.g. bupivacaine)) were investigated. […] The release study was analyzed using elution studies, where HPLC was used to analyze the amount of pain reliever released over time. The elution profile of bupivacaine from a porous adhesive composition matrix was analyzed over a 7-day period.
The particle size of calcium carbonate was between 15 nm to 40 nm. This formulation was used a control for the study. […] A bupivacaine formulation was tested by adding 10% w/w of the drug to the tetracalcium phosphate and phosphoserine powder blend. Standard spherical substrates of approximately 8 mm in diameter of porous adhesive bone regenerative were prepared. After curing, the samples were incubated in 50 mL 1× PBS solution for 7-days at 37° C.

With `N[C@@H](COP(=O)(O)O)C(=O)O` [O-Phospho-L-serine, O-Phospho-L-Serine], in series [1], the “Properties of the adhesive composition prepared with the compound” value was “injectable, adhesive, tacky, and self-setting”. `CC(=O)Oc1ccccc1C(=O)O` [Aspirin] showed a Partition coefficient in series [2] of 0.61.

The molecule `CC(C)Cc1ccc(C(C)C(=O)O)cc1` (stereo not drawn) [Ibuprofen] returned a Partition coefficient in series [2] of 0. `O=C(O)Cc1ccccc1Nc1c(Cl)cccc1Cl` [Diclofenac•Na]: the Partition coefficient in series [2] is listed as 0.103. Take `COc1ccc2cc([C@H](C)C(=O)O)ccc2c1` [Naproxen]: the “Elution of naproxen from the adhesive composition” value in series [3] (crushed, 10 mL 1x PBS, 4-days, 37° C.) is “almost fully eluted”. Also, the “Modification of chemical structure upon inclusion in the adhesive composition” value in series [3] is “no modification of the naproxen chemical structure”. As to `O=C(O)CN(CP(=O)(O)O)CP(=O)(O)O` [glyphosine, N,N-Bis(phosphonomethyl)glycine], the “Properties of the adhesive composition prepared with the compound” value in series [1] was “injectable, adhesive, tacky, and self-setting”. On the same count and under the same terms, then `O=C(O)CN(CCN(CC(=O)O)CC(=O)O)CC(=O)O` [ethylenediaminetetraacetic acid, Ethylenediamine tetraacetic acid], with “injectable, adhesive, tacky, and self-setting”; and `O=P(O)(O)CN(CP(=O)(O)O)CP(=O)(O)O` [aminotris(methylenephosphonic acid), (Nitrilotris(methylene)) triphosphonic acid], with “injectable, adhesive, tacky, and self-setting”. For the molecule gentamicin, in series [4], the “Retention of gentamicin in the adhesive composition” value is listed as “most of gentamicin was retained”.

With `CCCCN1CCCCC1C(=O)Nc1c(C)cccc1C` (stereo not drawn) [Bupivacaine•HCl], the “% bupivacaine release, porous vs non-porous formulation” value in series [5] is given as “remarkable increase”. This molecule gave a Partition coefficient in series [2] of 0.37.
